According to patent US7056940B2, “Insecticidal 3-(2,6-disubstituted phenyl)-5-[5-arylthien-2-yl]-1,2,4-triazoles” (Dow AgroSciences LLC, priority 2001, dated 2006):

Columns and labels:
Format in all cases: in vivo
[1] = test system: Cotton Aphid (Aphis gossypii); test: Insecticidal test for cotton aphid, spray on infested squash cotyledons; details: 50 ppm spray, 3 days
Method: Insecticidal Test for Cotton Aphid (Aphis gossypii)
To prepare spray solutions, 1 mg of each test compound was dissolved into 1 mL of a 90:10 acetone:ethanol solvent. This 1 mL of chemical solution was added to 19 mL of water containing 0.05% Tween 20 surfactant to produce a 50 ppm spray solution.
Squash cotyledons were infested with cotton aphid (all life stages) 16–20 hours prior to application of spray solution. The solution was sprayed on both sides of each infested squash cotyledon (0.5 mL×2 each side) with a sweeping action until runoff. The plants were allowed to air dry and held for 3 days in a controlled room at 26° C. and 40% RH after which time the test was graded. Grading was by actual count using a dissecting microscope and comparison of test counts to the untreated check. Results are given in Tables 1–4 as percent control based on population reduction versus the untreated.

[2] = test system: Tobacco Budworm (Heliothis virescens); test: Insecticidal test for tobacco budworm, treated cotton cotyledon leaf disc; parameters: key: A: 90–100; B: 80–89; C: 70–79; D: 60–69; E: 50–59; F: less than 50; G: Inactive; details: cotton cotyledon leaf-dip, 2nd instar larvae, 5 days
From the text: (§1) The compounds are useful for reducing populations of insects and mites and are useful in a method of inhibiting an insect or mite population which comprises applying to a locus of the insect or mite an effective insect- or mite-inactivating amount of a compound of formula (1). The “locus” of insects or mites is a term used herein to refer to the environment in which the insects or mites live or where their eggs are present, including the air surrounding them, the food they eat, or objects which they contact. For example, insects or mites which eat or contact edible or ornamental plants can be controlled by applying the active compound to plant parts such as the seed, seedling, or cutting which is planted, the leaves, stems, fruits, grain, or roots, or to the soil in which the roots are growing. It is contemplated that the compounds might also be useful to protect textiles, paper, stored grain, seeds, domesticated animals, buildings or human beings by applying an active compound to or near such objects. The term “inhibiting an insect or mite” refers to a decrease in the numbers of living insects or mites, or a decrease in the number of viable insect or mite eggs. The extent of reduction accomplished by a compound depends, of course, upon the application rate of the compound, the particular compound used, and the target insect or mite species. At least an inactivating amount should be used. The terms “insect-inactivating amount” and “mite-inactivating amount” are used to describe the amount, which is sufficient to cause a measurable reduction in the treated insect or mite population. Generally an amount in the range from about 1 to about 1000 ppm by weight active compound is used. For example, insects and mites which can be inhibited include, but are not limited to: • Lepidoptera—Heliothis spp., Helicoverpa spp., Spodoptera spp., Mythimna unipuncta, Agrotis ipsilon, Earias spp., Euxoa auxiliaris, Trichoplusia ni, Anticarsia gemmatalis, Rachiplusia nu, Plutella xylostella, Chilo spp., Scirpophaga incertulas, Sesamia inferens, Cnaphalocrocis medinalis, Ostrinia nubilalis, Cydia pomonella, Carposina niponensis, Adoxophyes orana, Archips argyrospilus, Pandemis heparana, Epinotia aporema, Eupoecilia ambiguella, Lobesia botrana, Polychrosis viteana, Pectinophora gossypiella, Pieris rapae, Phyllonorycter spp., Leucoptera malifoliella, Phyllocnisitis citrella • Coleoptera—Diabrotica spp., Leptinotarsa decemlineata, Oulema oryzae, Anthonomus grandis, Lissorhoptrus oryzophilus, Agriotes spp., Melanotus communis, Popillia japonica, Cyclocephala spp., Tribolium spp. • Homoptera—Aphis spp., Myzus persicae, Rhopalosiphum spp., Dysaphis plantaginea, Toxoptera spp., Macrosiphum euphorbiae, Aulacorthum solani, Sitobion avenae, Metopolophium dirhodum, Schizaphis graminum, Brachycolus noxius, Nephotettix spp., Nilaparvata lugens, Sogatella furcifera, Laodelphax striatellus, Bemisia tabaci, Trialeurodes vaporariorum, Aleurodes proletella, Aleurothrixus floccosus, Quadraspidiotus perniciosus, Unaspis yanonensis, Ceroplastes rubens, Aonidiella aurantii • Hemiptera—Lygus spp., Eurygaster maura, Nezara viridula, Piezodorus guildingi, Leptocorisa varicornis • Thysanoptera—Frankliniella occidentalis, Thrips spp., Scirtothrips dorsalis • Isoptera—Reticulitermes flavipes, Coptotermes formosanus • Orthoptera—Blattella germanica, Blatta orientalis, Gryllotalpa spp. • Diptera—Liriomyza spp., Musca domestica, Aedes spp., Culex spp., Anopheles spp. • Hymenoptera—Iridomyrmex humilis, Solenopsis spp., Monomorium pharaonis, Atta spp., Pogonomyrmex spp., Camponotus spp. • Siphonaptera—Ctenophalides spp., Pulex irritans • Acarina—Tetranychus spp., Panonychus spp., Eotetranychus carpini, Phyllocoptruta oleivora, Aculus pelekassi, Brevipalpus phoenicis, Boophilus spp., Dermacentor variabilis, Rhipicephalus sanguineus, Amblyomma americanum, Ixodes spp., Notoedres cati, Sarcoptes scabiei, Dermatophagoides spp. […]

[3] = test system: Two-spotted Spider Mite (Tetranychus urticae); test: Insecticidal test for two-spotted spider mite, ovicide method; parameters: key: A: 90–100; B: 80–89; C: 70–79; D: 60–69; E: 50–59; F: less than 50; G: Inactive; details: cotton leaf discs, 6 days
Method: Insecticidal Test for Two-spotted Spider Mite (Tetranychus urticae)
Ten adult female two-spotted spider mites were placed on eight 2.2 cm leaf discs of cotton leaf, allowed to oviposit over 24 hours, and thereafter removed. […] Discs were placed on an agar substrate and held at 24° C. and 90% RH for 6 days.

[4] = test system: Beet Armyworm (Spodoptera exigua); test: Insecticidal test for beet armyworm, treated lepidopteran diet; parameters: key: A: 90–100; B: 80–89; C: 70–79; D: 60–69; E: 50–59; F: less than 50; G: Inactive; details: on diet surface, second-instar larvae, 5 days
From the text: as §1

[5] = test system: Sweetpotato Whitefly (Bemisia tabacia); test: Insecticidal test for sweetpotato whitefly, spray on cotton plants; parameters: key: A: 90–100; B: 80–89; C: 70–79; D: 60–69; E: 50–59; F: less than 50; G: Inactive; details: 200 ppm spray, 13 days, large nymphs
Method: Insecticidal Test for Sweetpotato Whitefly (Bemisia tabacia)
Four mg of each test compound was dissolved by adding 4 mL of a 90:10 acetone:ethanol solvent mixture to the vial containing the sample compound. This solution was added to 16 mL of water containing 0.05% Tween 20 surfactant to produce 20 mL of an 200 ppm spray solution.
Five-week-old cotton plants reared in a greenhouse were stripped of all foliage except for the two uppermost true leaves that were greater than 5 cm in diameter. These plants were then placed into a laboratory colony of whiteflies for two days for oviposition by the colony females. All whiteflies were then removed from the test plants with pressurized air. The spray solution was then applied to the test plants with a hand-held syringe fitted with hollow cone nozzle. One mL spray solution was applied to each leaf top and bottom for a total of 4 mL per plant. Four replications of each test compound utilized a total of 16 mL spray solution. Plants were air dried and then placed in a holding chamber (28° C. and 60% RH) for 13 days. Compound efficacy was evaluated by counting, under an illuminated magnifying glass, the number of large nymphs (3rd–4th instar) per leaf.
Percent control based on reduction of large nymphs of a test compound compared to solution-only (no test compound) sprayed plants is reported in Tables 1–4.

[6] = test system: Cabbage Looper (Trichoplusia ni); test: Insecticidal test for cabbage looper, treated cabbage leaf disc; details: cabbage leaf-dip, 2nd instar larvae, 5 days
From the text: as §1

Cc1c(-c2nc(-c3c(F)cccc3Cl)nn2C)sc(Br)c1-c1ccc(OC(F)(F)C(F)Br)cc1 (stereo not drawn)
CA: activity at 50 ppm against cotton aphid (% control rating) [1]: B (80–89) | TBW: activity at 400 ppm against tobacco budworm (% control rating) [2]: F (less than 50) | SM: activity against two-spotted spider mite (% control rating) [3]: G | BAW: activity at 400 ppm against beet armyworm (% control rating) [4]: A (90–100) | WF: activity at 200 ppm against whitefly (% control rating) [5]: F (less than 50) | CL: activity at 400 ppm against cabbage looper (% control rating) [6]: A (90–100)

Cc1c(-c2nc(-c3c(F)cccc3Cl)nn2C)csc1-c1ccc(OC(F)(F)C(F)F)cc1
CA: activity at 50 ppm against cotton aphid (% control rating) [1]: C (70–79) | TBW: activity at 400 ppm against tobacco budworm (% control rating) [2]: A (90–100) | SM: activity against two-spotted spider mite (% control rating) [3]: E (50–59) | BAW: activity at 400 ppm against beet armyworm (% control rating) [4]: A (90–100) | WF: activity at 200 ppm against whitefly (% control rating) [5]: A (90–100) | CL: activity at 400 ppm against cabbage looper (% control rating) [6]: A (90–100)

Cc1cc(-c2ccc(OC(F)(F)C(Cl)Cl)cc2)sc1-c1nc(-c2c(F)cccc2Cl)nn1C
CA: activity at 50 ppm against cotton aphid (% control rating) [1]: A (90–100) | TBW: activity at 400 ppm against tobacco budworm (% control rating) [2]: A (90–100) | SM: activity against two-spotted spider mite (% control rating) [3]: B (80–89) | BAW: activity at 400 ppm against beet armyworm (% control rating) [4]: A (90–100) | WF: activity at 200 ppm against whitefly (% control rating) [5]: E (50–59) | CL: activity at 400 ppm against cabbage looper (% control rating) [6]: A (90–100)

Cc1sc(-c2ccc(Cl)cc2F)cc1-c1nc(-c2c(F)cccc2Cl)nn1C
CA: activity at 50 ppm against cotton aphid (% control rating) [1]: B (80–89) | TBW: activity at 400 ppm against tobacco budworm (% control rating) [2]: G | SM: activity against two-spotted spider mite (% control rating) [3]: A (90–100) | BAW: activity at 400 ppm against beet armyworm (% control rating) [4]: A (90–100) | WF: activity at 200 ppm against whitefly (% control rating) [5]: F (less than 50) | CL: activity at 400 ppm against cabbage looper (% control rating) [6]: A (90–100)

CC(C)=COc1ccc(-c2scc(-c3nc(-c4c(F)cccc4Cl)nn3C)c2C)cc1
CA: activity at 50 ppm against cotton aphid (% control rating) [1]: A (90–100) | TBW: activity at 400 ppm against tobacco budworm (% control rating) [2]: F (less than 50) | SM: activity against two-spotted spider mite (% control rating) [3]: A (90–100) | BAW: activity at 400 ppm against beet armyworm (% control rating) [4]: A (90–100) | WF: activity at 200 ppm against whitefly (% control rating) [5]: A (90–100) | CL: activity at 400 ppm against cabbage looper (% control rating) [6]: A (90–100)

Cc1c(-c2nc(-c3c(F)cccc3Cl)nn2C)csc1-c1ccc(Oc2ccccc2)cc1
CA: activity at 50 ppm against cotton aphid (% control rating) [1]: A (90–100) | TBW: activity at 400 ppm against tobacco budworm (% control rating) [2]: F (less than 50) | SM: activity against two-spotted spider mite (% control rating) [3]: A (90–100) | BAW: activity at 400 ppm against beet armyworm (% control rating) [4]: A (90–100) | WF: activity at 200 ppm against whitefly (% control rating) [5]: A (90–100) | CL: activity at 400 ppm against cabbage looper (% control rating) [6]: A (90–100)

Cc1c(-c2nc(-c3c(F)cccc3Cl)nn2C)csc1-c1ccc(OC(F)(F)C(F)C(F)(F)F)cc1 (stereo not drawn) [drawing 216]
CA: activity at 50 ppm against cotton aphid (% control rating) [1]: D (60–69) | TBW: activity at 400 ppm against tobacco budworm (% control rating) [2]: A (90–100) | SM: activity against two-spotted spider mite (% control rating) [3]: B (80–89) | BAW: activity at 400 ppm against beet armyworm (% control rating) [4]: A (90–100) | WF: activity at 200 ppm against whitefly (% control rating) [5]: A (90–100) | CL: activity at 400 ppm against cabbage looper (% control rating) [6]: A (90–100)

Cc1c(-c2nc(-c3c(F)cccc3Cl)nn2C)csc1-c1ccc(OC(F)(F)C(Cl)Cl)cc1
CA: activity at 50 ppm against cotton aphid (% control rating) [1]: B (80–89) | TBW: activity at 400 ppm against tobacco budworm (% control rating) [2]: A (90–100) | SM: activity against two-spotted spider mite (% control rating) [3]: A (90–100) | BAW: activity at 400 ppm against beet armyworm (% control rating) [4]: A (90–100) | WF: activity at 200 ppm against whitefly (% control rating) [5]: A (90–100) | CL: activity at 400 ppm against cabbage looper (% control rating) [6]: A (90–100)

Cn1nc(-c2c(F)cccc2Cl)nc1-c1cc(-c2cccc(OC(F)(F)F)c2)sc1Cl
CA: activity at 50 ppm against cotton aphid (% control rating) [1]: A (90–100) | TBW: activity at 400 ppm against tobacco budworm (% control rating) [2]: G | SM: activity against two-spotted spider mite (% control rating) [3]: A (90–100) | BAW: activity at 400 ppm against beet armyworm (% control rating) [4]: G | WF: activity at 200 ppm against whitefly (% control rating) [5]: G | CL: activity at 400 ppm against cabbage looper (% control rating) [6]: A (90–100)

Cn1nc(-c2c(F)cccc2Cl)nc1-c1sc(-c2ccc(Br)cc2)cc1Cl
CA: activity at 50 ppm against cotton aphid (% control rating) [1]: B (80–89) | TBW: activity at 400 ppm against tobacco budworm (% control rating) [2]: A (90–100) | SM: activity against two-spotted spider mite (% control rating) [3]: A (90–100) | BAW: activity at 400 ppm against beet armyworm (% control rating) [4]: A (90–100) | WF: activity at 200 ppm against whitefly (% control rating) [5]: G | CL: activity at 400 ppm against cabbage looper (% control rating) [6]: A (90–100)

Cn1nc(-c2c(F)cccc2Cl)nc1-c1csc(-c2ccc(Cl)cc2F)c1
CA: activity at 50 ppm against cotton aphid (% control rating) [1]: B (80–89) | TBW: activity at 400 ppm against tobacco budworm (% control rating) [2]: F (less than 50) | SM: activity against two-spotted spider mite (% control rating) [3]: A (90–100) | BAW: activity at 400 ppm against beet armyworm (% control rating) [4]: G | WF: activity at 200 ppm against whitefly (% control rating) [5]: F (less than 50) | CL: activity at 400 ppm against cabbage looper (% control rating) [6]: A (90–100)

Cc1cc(-c2ccc(Cl)cc2F)sc1-c1nc(-c2c(F)cccc2Cl)nn1C
CA: activity at 50 ppm against cotton aphid (% control rating) [1]: C (70–79) | TBW: activity at 400 ppm against tobacco budworm (% control rating) [2]: F (less than 50) | SM: activity against two-spotted spider mite (% control rating) [3]: A (90–100) | BAW: activity at 400 ppm against beet armyworm (% control rating) [4]: A (90–100) | WF: activity at 200 ppm against whitefly (% control rating) [5]: G | CL: activity at 400 ppm against cabbage looper (% control rating) [6]: A (90–100)
